Data taken from patent US8884032B2, “Trioxane monomers and dimers” (The Johns Hopkins University, priority 2009, dated 2014).
Values joined by “and” are separate entries in the source; they are usually repeats but may differ in a detail not shown here. Equal values may be shown once. Marks after values point to notes of the source that are not given here.

Legend:
[1] = tested on: Plasmodium berghei, ANKA strain; experiment: Antimalarial efficacy of a single oral dose of trioxane combined with mefloquine hydrochloride in Plasmodium berghei-infected mice (Table 1); assay type: in vivo
Experimental: (§1) Each trioxane 2b, 3, 4a, and 4b (0.90 mg) was dissolved in 0.11 mL of 7:3 Tween 80:ethanol and then diluted with 1.10 mL of water for oral administration to 5-week old C57BL/6J male mice (from the Jackson Laboratory) weighing about 22 g that were infected intraperitoneally on day 0 with the Plasmodium berghei, ANKA strain (2×10^7 parasitized erythrocytes). Chen et al., 2006.
(§2) Each of five mice in a group was treated orally 24 h post-infection with a single dose of 0.20 mL (0.20 mL/1.21 mL×0.9 mg=0.15 mg) of diluted compound solution, corresponding to a dose of 6.8 mg/kg, combined with 20 mg/kg of mefloquine hydrochloride. Determining blood parasitemia levels, as well as monitoring the duration of animal survival compared to survival time of animals receiving no drug, are both widely accepted as measures of a drug's efficacy in antimalarial drug development. […] Animals receiving no drug died on days 6-7 post-infection. A widely accepted yardstick of cure (i.e., 100% efficacy) is survival of animals to day 30 post-infection, with no detectable malaria parasites in the animal's blood at that time.
Average survival results are summarized in Table 1, including single oral doses of 13 mg/kg of trioxane combined with 13 mg/kg of mefloquine hydrochloride. The clinically used monomeric water-soluble trioxane drug 2c and the synthetic trioxolane peroxide drug development candidate OZ277 (9) maleate are included as monotherapy reference compounds.

[2] = tested on: Plasmodium berghei, ANKA strain; experiment: Antimalarial efficacy of a single oral dose of trioxane (8 mg/kg) combined with mefloquine hydrochloride (24 mg/kg) in Plasmodium berghei-infected mice (Table 3); assay type: in vivo; settings: single oral dose 8 mg/kg trioxane + 24 mg/kg mefloquine hydrochloride; for Average Survival (days) After Infection: 3 mice, experiment stopped on day 57
Experimental: (§3) Each trioxane silylamide 14a, 14b, and 16 (0.90 mg) was dissolved in 0.11 mL of 7:3 Tween 80:ethanol and then diluted with 1.10 mL of water for oral administration to 5-week old C57BU6J male mice (from the Jackson Laboratory) weighing 18-19 grams that were infected intraperitoneally on day 0 with the Plasmodium berghei, ANKA strain (2×10^7 parasitized erythrocytes). Woodard et al., 2009. Each of 3 mice in a group was treated orally 24 hours post-infection with a single dose of 0.20 mL (0.20 mL/1.21 mL×0.9 mg=0.15 mg) of diluted compound solution, corresponding to a dose of 8 mg/kg, combined with 24 mg/kg of mefloquine hydrochloride. Determining blood parasitemia levels, as well as monitoring the duration of animal survival compared to survival time of animals receiving no drug, are both widely accepted as measures of a drug's efficacy in antimalarial drug development. […] Animals infected but receiving no drug died on an average of 15 days post-infection. A widely accepted yardstick of cure (i.e., 100% efficacy) is survival of animals to at least day 30 post-infection, with no detectable malaria parasites in the animal's blood at that time.

[3] = tested on: Plasmodium berghei; settings: monotherapy, single oral dose 30 mg/kg; data from Vennerstrom et al.; cited from earlier work
[4] = Overt toxicity, behavioral change and body weight in treated malaria-infected mice (silylamide study); assay type: in vivo; settings: malaria-infected animals cured by trioxane plus mefloquine hydrochloride
Experimental: as §3

[5] = tested on: 60 cancer cell lines (leukemia, non-small-cell lung, colon, CNS, melanoma, ovarian, renal, prostate, breast); settings: cited from earlier work
[6] = tested on: P388 leukemia; settings: NCI Report on NSC 369397, 25 Oct. 1983; cited from earlier work
[7] = Thermal stability in the absence of solvent (1H NMR); assay type: physicochemical; settings: neat solid
From the text: Referring now to Scheme 3, C-10 acetate 2d was converted into C-10-allyl derivative 7 and then, via hydroboration followed by oxidation, into monomeric trioxane carboxylic acid 8. Jung et al, 2003. Monomeric trioxane carboxylic acid 8 can be transformed in one step directly into a diverse library of monomeric trioxane amides. Jung et al, 2003. For example, one-step amidation of carboxylic acid 8 produced trioxane fluoroaryl amide 4a, a monomeric version of dimer fluoroaryl amide 3 (Scheme 3). In the same way, monomer trioxane fluoroanilide 4b was prepared directly and in good yield from carboxylic acid 8 (Scheme 3). The overall yield of 4b is approximately 48% from natural trioxane 1, and scale up to multigram or even kilogram amounts is expected to be straightforward. […]
Referring once again to Scheme 4, dihydroartemisinin acetate 2d, prepared from natural trioxane 1 in near quantitative yield, Posner et al., 2003, underwent tin-promoted dimerization, Posner et al., 2003, with bis-allylic silane 10, Bigot and Breit, 2008, to form pure C-10b, C10b-trioxane dimer alcohol 11 in 59% yield. […] Each of benzoate esters 12a-12c in the absence of solvent is thermally stable at the elevated temperature of 60° C. for at least 1 week and at 70° C. for at least 24 h, with less than 5% decomposition detected by ^1H NMR spectroscopy. […]

[8] = Overt toxicity and behavioral change in treated malaria-infected mice (fluoroaryl amide study); assay type: in vivo; settings: malaria-infected animals cured by trioxane plus mefloquine hydrochloride
Experimental: as §1, §2

[9] = tested on: Plasmodium berghei, ANKA malaria strain; experiment: Antimalarial efficacy of a single oral dose (7.1 mg/kg) of trioxane combined with mefloquine hydrochloride (21 mg/kg) in Plasmodium berghei-infected mice (Table 2); assay type: in vivo
Experimental: (§4) Each trioxane dimer 12a-12c (0.90 mg) was dissolved in 0.11 mL of 7:3 Tween 80:ethanol and then diluted with 1.10 mL of distilled water for oral administration to 5-week-old C57BL/6J male mice (Jackson Laboratory) weighing about 21 g that were infected ip on day 0 with the Plasmodium berghei, ANKA malaria strain (2×10^7 parasitized erythrocytes) [Chen et al., 2006]. Each of five mice in a group was treated orally 24 h post-infection with a single dose of 0.20 mL (0.20 mL/1.21 mL×0.9 mg=0.15 mg) of diluted compound solution, corresponding to a dose of 7.1 mg/kg, combined with 21 mg/kg of mefloquine hydrochloride. Both determining blood parasitemia levels, as well as monitoring the duration of animal survival compared with survival time of infected animals receiving no drug, are widely accepted measures of drug efficacy in antimalarial drug development. […] The average survival time of the animals receiving no drug was 15.8 days post-infection. […] Widely accepted indications of complete cure (i.e. 100% efficacy) are survival of animals to day 30 post-infection with no detectable malaria parasites in the animal's blood at that time.

[10] = tested on: Plasmodium berghei, ANKA strain; experiment: Antimalarial efficacy of a single oral dose of trioxane (8 mg/kg) combined with mefloquine hydrochloride (24 mg/kg) in Plasmodium berghei-infected mice (Table 3); assay type: in vivo; settings: mefloquine hydrochloride alone, single oral dose 22 mg/kg
[11] = Overt toxicity, behavioral change and body weight in treated malaria-infected mice (dimer ester study); assay type: in vivo; settings: 7.1 mg/kg trioxane + 21 mg/kg mefloquine hydrochloride, mice surviving 30 days
Experimental: as §4

[12] = single oral dose 6.8 mg/kg trioxane + 20 mg/kg mefloquine hydrochloride
[13] = single oral dose 6.8 mg/kg trioxane + 20 mg/kg mefloquine hydrochloride, 24 h post-infection, C57BL/6J mice
[14] = single oral dose 13 mg/kg trioxane + 13 mg/kg mefloquine hydrochloride
[15] = mefloquine hydrochloride alone, single oral dose 21 mg/kg
[16] = mefloquine hydrochloride alone, single oral dose 20 mg/kg

## C[C@H]1[C@@H](CC(C[C@H]2O[C@@H]3O[C@]4(C)CC[C@H]5[C@H](C)CC[C@@H]([C@H]2C)[C@@]35OO4)C(=O)NCc2ccc(F)cc2)O[C@@H]2O[C@]3(C)CC[C@H]4[C@H](C)CC[C@@H]1[C@@]24OO3 (stereo partly shown) [compound 3, Trioxane Dimer Fluoroaryl Amide]
[1]; [12]
  % Suppression of Parasitemia (on day 3 post-infection): 99.5%
[1]; [13]
  Average Survival (days) After Infection: 27.4 (22, 25, days
[1]; [14]
  % Suppression of Parasitemia (on day 3 post-infection): 99.9%
  Average Survival (days) After Infection: 24.6 (17, 21, days

## C[C@H]1[C@@H](CCC(=O)NCCC[Si](C)(C)C)O[C@@H]2O[C@]3(C)CC[C@H]4[C@H](C)CC[C@@H]1[C@@]24OO3 [14b]
[2]
  % Suppression of Parasitemia (on day 3 post-infection): >99.5%
  parasites in the blood of the surviving mice on day 57: ^aOne mouse died on day 17; the other two mice in this group showed no parasitemia on day 57.
  Average Survival (days) After Infection: 44^a days

## CC(C)(N)CNC(=O)C[C@H]1CC[C@]2(CC1)OO[C@]1(O2)C2CC3CC(C2)CC1C3 [compound 9]
[3]
  % Suppression of Parasitemia (on day 3 post-infection): 99.95^b %

## C[C@H]1[C@@H](CC(C[C@H]2O[C@@H]3O[C@]4(C)CC[C@H]5[C@H](C)CC[C@@H]([C@H]2C)[C@@]35OO4)C(=O)NC[Si](C)(C)C)O[C@@H]2O[C@]3(C)CC[C@H]4[C@H](C)CC[C@@H]1[C@@]24OO3 (stereo partly shown) [compound 16]
[4]
  overt toxicity or behavioral change attributable to trioxane drug administration: Neither overt toxicity nor behavioral change
[2]
  % Suppression of Parasitemia (on day 3 post-infection): >99.5%
  parasites in the blood of the surviving mice on day 57: no parasites were detected
  Average Survival (days) After Infection: >57 days

## C[C@@H]1CC[C@H]2[C@@H](C)C(=O)O[C@@H]3O[C@@]4(C)CC[C@@H]1[C@]32OO4 [artemisinin]
[5]
  anticancer activity in 60 cell line panel: modest anticancer activity
[6]
  activity against P388 leukemia: inactive

## C[C@H]1[C@@H](CCC(=O)Nc2ccc(F)cc2)O[C@@H]2O[C@]3(C)CC[C@H]4[C@H](C)CC[C@@H]1[C@@]24OO3 [4b, Trioxane Monomer Fluoroanilide]
[7]; 60° C.
  stable in the absence of solvent at 60° C.: at least 7 days
[7]; 70° C.
  stable in the absence of solvent at 70° C.: at least 1 day
[8]
  overt toxicity or behavioral change attributable to trioxane drug administration: Neither overt toxicity nor behavioral change
[1]; 6.8 mg/kg trioxane + 20 mg/kg mefloquine hydrochloride
  blood parasitemia of the one mouse not cured, day 30: 4%
[1]; 6.8 mg/kg trioxane + 20 mg/kg mefloquine hydrochloride, five mice
  mice completely cured (no parasites in their blood) on day 30 post-infection: 80%
[1]; 13 mg/kg trioxane + 13 mg/kg mefloquine hydrochloride
  blood parasitemia of the one mouse not cured, day 30: 2%
[1]; 13 mg/kg trioxane + 13 mg/kg mefloquine hydrochloride, five mice
  mice cured (day 30): four
[1]; monotherapy, single oral dose 72 mg/kg trioxane, no mefloquine
  % Suppression of Parasitemia (on day 3 post-infection): 99.0%
[1]; monotherapy, single oral dose 72 mg/kg trioxane, no mefloquine, 72 mg/kg
  Average Survival (days) After Infection: 24.4 days and 24.4 (21, 23, days
[1]; reinfection of the four cured mice on day 32 after the original infection
  extended survival time after reinfection, longer than average survival of a newly infected control group: approximately four
[1]; [12]
  % Suppression of Parasitemia (on day 3 post-infection): 99.0%
[1]; [14]
  % Suppression of Parasitemia (on day 3 post-infection): 99.6%
  Average Survival (days) After Infection: 30 days

## Cl.OC(c1cc(C(F)(F)F)nc2c(C(F)(F)F)cccc12)C1CCCCN1 (stereo not shown) [Mefloquine, mefloquine hydrochloride, reference compound]
[9]; [15]
  No. of mice parasite free (day 30): 1
  suppression of parasitemia (day 3): 91.5%
[9]; mefloquine hydrochloride alone, single oral dose 21 mg/kg, average of 4 mice, hydrochloride, 21 mg/kg
  % parasitemia on day 30%: 25 (4 mice) %
[9]; mefloquine hydrochloride alone, single oral dose 21 mg/kg, average of 4 mice, listed as mefloquine hydrochloride, hydrochloride, 21 mg/kg
  % parasitemia on day 30%: 25%
[10]
  cure of malaria-infected mice: not curative
[1]; [16]
  % Suppression of Parasitemia (on day 3 post-infection): 99.6%
  Average Survival (days) After Infection: 17.6 days

## CO[C@H]1O[C@@H]2O[C@@]3(C)CC[C@H]4[C@H](C)CC[C@@H]([C@H]1C)[C@@]24OO3 [2b, artemether, reference compound]
[11]
  weight gain: 10-20%
[9]; 7.1 mg/kg trioxane + 21 mg/kg mefloquine hydrochloride
  survival after infection (all mice): 30 days
[9]; single oral dose 7.1 mg/kg trioxane + 21 mg/kg mefloquine hydrochloride, five mice
  No. of mice parasite free (day 30): 4
[9]; single oral dose 7.1 mg/kg trioxane + 21 mg/kg mefloquine hydrochloride, number of parasitemic mice in brackets
  % parasitemia on day 30%: 1.6 (1 mouse) %
[1]; [12]
  % Suppression of Parasitemia (on day 3 post-infection): 99.8%
[1]; [13]
  Average Survival (days) After Infection: 19.8 days and 19.8 (16, 17, days
[1]; [14]
  % Suppression of Parasitemia (on day 3 post-infection): 99.7%
  Average Survival (days) After Infection: 19.6 (16, 17, days

## C[C@H]1[C@@H](CCC(=O)NC[Si](C)(C)C)O[C@@H]2O[C@]3(C)CC[C@H]4[C@H](C)CC[C@@H]1[C@@]24OO3 [14a]
[4]
  overt toxicity or behavioral change attributable to trioxane drug administration: Neither overt toxicity nor behavioral change
[2]
  % Suppression of Parasitemia (on day 3 post-infection): >99.5%
  parasites in the blood of the surviving mice on day 57: no parasites were detected
  Average Survival (days) After Infection: >57 days
